Data reported in patent publication US7625713B2, “Process for identifying a ligand that binds to the NEP binding site for the SMR1 pentapeptide” (Institut Pasteur, priority 2000, dated 2009).
“Also recorded” adds a separate entry of the source. Where a SMILES comes first, the peptide text is derived from it.

Target: T1, NEP (Rattus norvegicus, UniProt P07861)
T1 construct: incubations of membrane and fresh tissue slice preparations from nervous tissues; from tissue; host or cells: dorsal spinal cord of male Wistar rats (fresh slices or 100 000 x g membrane fraction)
T1 sequence (P07861 1-750): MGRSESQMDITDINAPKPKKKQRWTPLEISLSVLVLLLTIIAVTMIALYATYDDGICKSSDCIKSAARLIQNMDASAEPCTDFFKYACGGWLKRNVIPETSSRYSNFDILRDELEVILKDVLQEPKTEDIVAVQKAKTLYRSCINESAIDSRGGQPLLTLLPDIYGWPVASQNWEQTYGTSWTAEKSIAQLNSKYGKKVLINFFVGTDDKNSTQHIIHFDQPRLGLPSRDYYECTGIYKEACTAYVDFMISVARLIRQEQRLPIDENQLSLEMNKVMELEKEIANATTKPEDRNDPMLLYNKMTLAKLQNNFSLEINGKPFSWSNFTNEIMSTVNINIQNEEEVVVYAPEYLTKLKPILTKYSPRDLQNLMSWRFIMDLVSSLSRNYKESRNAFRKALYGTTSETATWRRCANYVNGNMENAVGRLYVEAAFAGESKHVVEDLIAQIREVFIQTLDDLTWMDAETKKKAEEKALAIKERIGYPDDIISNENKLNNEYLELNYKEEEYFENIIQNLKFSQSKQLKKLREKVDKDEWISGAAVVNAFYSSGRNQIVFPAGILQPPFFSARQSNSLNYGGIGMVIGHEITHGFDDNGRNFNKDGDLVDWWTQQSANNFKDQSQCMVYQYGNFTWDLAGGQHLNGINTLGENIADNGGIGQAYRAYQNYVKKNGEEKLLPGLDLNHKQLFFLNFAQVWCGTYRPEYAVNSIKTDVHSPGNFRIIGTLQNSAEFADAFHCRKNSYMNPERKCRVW
Assay: 3H-Substance P hydrolysis by rat spinal cord membrane preparations
Format: biochemical
Protocol: FIG. 1-A: Influence of spinal cord membrane protein concentration on Substance P hydrolysis (25 nM) in the presence or absence of the synthetic NEP inhibitor, Phosphoramidon, 10 μM. Each point represents the percent of 3H-substance P hydrolyzed by spinal cord membrane incubated 15 min. at 30° C. in a 250 μl final volume of Tris/HCl buffer. […] Each point represents the percent of 3H-substance P hydrolyzed by 250 μg membrane proteins incubated at 25° C. in a 250 μl final volume of Tris/HCl buffer. FIG. 3-B: Concentration-dependent inhibition by […] NO: 2) of 3H-Substance P (12.5 nM) catabolism by rat spinal cord membrane preparations. Comparison with-a NEP inhibitor, Phosphoramidon and, -CPB and DPPIV inhibitors, […] inhibitor. Comparison between the inhibitory activity exerted by […] NO: 2) peptide alone or in combination with CPB and DPPIV inhibitors. […] The metabolism rate of the NEP-sensitive peptides was measured using the both NEP substrates involved in the signaling of the nociceptive response: the neuropeptides Met-enkephalin and Substance P. […] The temperature and the time of the incubation as well as the concentration of substrate and of membrane enzyme are defined according to the results such as the NEP hydrolysis activity will be measured under conditions of initial velocity. […] The radioactivity of eluted and isolated compounds is determined by liquid scintillation spectrometry.

## N=C(N)NCCC[C@H](NC(=O)[C@@H]1CCCN1C(=O)[C@H](CC(N)=O)NC(=O)[C@H](Cc1c[nH]cn1)NC(=O)[C@@H](N)CCC(N)=O)C(=O)O [sialorphin, Gln-His-Asn-Pro-Arg] (H-QHNPR-OH; N-terminus and C-terminus assumed)
Peptide alone, listed as SMR1-QHNPR
  inhibitory potency / protection of Substance P compared with reference NEP inhibitors: equivalent t0 that obtained with Phosphoramidon; also recorded: equivalent to that of two well-known NEP-specific inhibitors, Thiorphan and Phosphoramidon
Peptide combined with the inhibitors of CPB and DPPIV
  NEP inhibiting activity compared with phosphoramidon: greater than that of phosphoramidon
